Source: ChEMBL document CHEMBL2448688, “Selection and optimization of hits from a high-throughput phenotypic screen against Trypanosoma cruzi. Exported from HEOS 25-Oct-2013. See also related datasets CHEMBL3137440 and CHEMBL3137386”
≈ marks a conversion by molar mass, not a printed value. Where “and” joins values, the source holds several entries; their conditions need not be identical. Equal values may be shown once.

Experiments:
Trypanosoma cruzi [1] = test: (§1) DNDI: Chagas in Vitro; format: functional, organism-based, Tulahuen C4 (LacZ)
Trypanosoma cruzi [2] = test: as §1; format: functional, Tulahuen C4 (LacZ)
Cytochrome P450 3A4 = Cytochrome P450 3A4 (Homo sapiens, UniProt P08684); test: DNDI: Human CYP3A4 inhibition determined using 6b-hydroxylation of testosterone
[3] = DNDI: Lipophilicity (gLogD) at pH 3; details: buffer, pH 3, logD
[4] = DNDI: Lipophilicity (gLogD) at pH 7.4; details: buffer, pH 7.4, logD
[5] = DNDI: Solubility in 0.01M HCl at pH 2 determined by nephelometry; details: 0.01M HCl, pH 2, Kinetic
[6] = DNDI: Solubility in phosphate buffer at pH 6.5 determined by nephelometry; details: phosphate buffer, pH 6.5, Kinetic
in vitro [7] = details: human, microsomes
in vitro [8] = details: human, microsomes, EH
in vitro [9] = details: human, microsomes, t (1 / 2)
[10] = (§2) DNDI: Cytotoxicity in vitro, against rat skeletal myoblast (L-6) cells; details: L-6 cells (skeletal myoblasts), IC50
[11] = test system: Trypanosoma brucei rhodesiense; test: DNDI: HAT in Vitro; format: functional, organism-based, ATCC 30027; details: Trypanosoma brucei, ATCC 30027
Trypanosoma cruzi [12] = test: DNDI: Chagas in vivo at 20 mg/kg, 20 days 2x; format: functional, Tulahuen Swiss po
L6 = test: as §2; details: L-6 cells (skeletal myoblasts)
[13] = Trypanosoma cruzi, Tulahuen C4 (LacZ)

Cytochrome P450 3A4, sequence (P08684 whole entry): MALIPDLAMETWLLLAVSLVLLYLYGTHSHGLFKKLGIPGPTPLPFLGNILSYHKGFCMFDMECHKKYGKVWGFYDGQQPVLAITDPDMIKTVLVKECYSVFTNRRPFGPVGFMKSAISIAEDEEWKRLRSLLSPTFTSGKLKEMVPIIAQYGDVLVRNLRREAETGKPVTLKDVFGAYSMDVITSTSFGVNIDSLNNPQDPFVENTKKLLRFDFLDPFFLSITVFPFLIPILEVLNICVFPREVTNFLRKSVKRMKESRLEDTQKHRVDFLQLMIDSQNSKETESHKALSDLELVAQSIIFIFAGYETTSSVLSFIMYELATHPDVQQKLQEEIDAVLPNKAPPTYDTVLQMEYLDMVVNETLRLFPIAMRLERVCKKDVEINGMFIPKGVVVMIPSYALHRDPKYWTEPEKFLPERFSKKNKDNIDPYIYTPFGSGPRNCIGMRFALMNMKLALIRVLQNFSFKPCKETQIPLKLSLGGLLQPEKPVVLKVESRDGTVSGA

Structure (SMILES)	IC50 (Trypanosoma cruzi [1])	IC50 (Trypanosoma cruzi [1]; [13])	IC90 (Trypanosoma cruzi [2])	IC50 (Cytochrome P450 3A4)	chromatographic logD [3]	chromatographic logD [4]	solubility kinetic [5]	solubility kinetic [6]	microsomal CLint (in vitro [7])	hepatic extraction ratio (in vitro [8])	half-life (in vitro [9])	IC90 (Trypanosoma cruzi [2]; [13])	IC50 [10]	IC50 [11]	PCR cure rate (Trypanosoma cruzi [12])	IC50 (L6)
CCN(Cc1cnc[nH]1)c1cc(F)cc(-c2nc3ccccc3s2)c1	0.048 µM	0.051 µM	0.051 µM and 0.11 µM	0.576 µM	1.98	4.67	> 70.5 µg/mL	3.1 µg/mL (≈ 8.8 µM)	138 µL/min/mg	0.874	12.4 min	–	–	–	–	–
CCN(Cc1cccnc1)c1cc(F)cc(-c2nc3ccccc3s2)c1	–	0.047 µM	–	0.775 µM	3.75	> 4.5	57.2 µg/mL (≈ 157 µM)	< 0.36 µg/mL	179 µL/min/mg	0.898	9.7 min	0.098 µM	57.7 µM	–	–	–
O=C(NCCc1cnc[nH]1)c1cnc(-c2ccccc2)cn1	–	–	–	16 µM	1.3	2.1	> 100 µg/mL	–	< 7 µL/min/mg	< 0.23	> 250 min	–	–	> 10 µM	–	–
O=C(NCCc1cnc[nH]1)c1ccc2cc(Br)ccc2c1	–	0.186 µM	–	3.28 µM	–	–	64.3 µg/mL (≈ 187 µM)	48.2 µg/mL (≈ 140 µM)	16.5 µL/min/mg	–	105 min	> 1 µM	59.7 µM	> 10 µM	–	–
O=C(C1CC1)N(Cc1cccnc1)c1cccc(-c2nc3ccccc3s2)c1	–	0.029 µM	–	–	3.4	4	> 100 µg/mL	–	380 µL/min/mg	–	5 min	> 0.1 µM	60.6 µM	> 10 µM	–	–
CCN(Cc1cccnc1)c1ccc(-c2ccc(F)cc2)cc1F	–	0.017 µM	–	1 µM	3.49	> 4.5	59.5 µg/mL (≈ 183 µM)	< 0.32 µg/mL	80.5 µL/min/mg	0.799	21.5 min	0.0825 µM	56.3 µM	–	–	–
CCS(=O)(=O)N(Cc1cccnc1)c1cccc(-c2nc3ccccc3s2)c1	–	0.023 µM	–	< 0.25 µM	3.2	3.6	> 100 µg/mL	–	346 µL/min/mg	0.93	5 min	0.0585 µM	> 100 µM	> 10 µM	–	–
Cl.NCC(=O)N(Cc1cccnc1)c1ccc(-c2nc3ccccc3s2)cc1	–	–	–	–	–	–	–	–	–	–	–	–	–	–	20%	–
O=C(C1CC1)N(Cc1cccnc1)c1cncc(-c2nc3ccccc3s2)c1	–	0.0129 µM	–	–	–	–	–	–	–	–	–	0.034 µM	–	–	–	–
CN(C)S(=O)(=O)c1ccc(-n2ccnc2)c(NC(=O)c2cnc(-c3ccccc3)s2)c1	–	0.013 µM	–	10 µM	2.4	3	> 100 µg/mL	–	79 µL/min/mg	0.75	22 min	0.087 µM	> 100 µM	> 10 µM	–	–
CO/N=C(\C)c1ccc(-n2ccnc2)c(NC(=O)c2cnc(-c3ccccc3)s2)c1	0.0009 µM	0.000617 µM	0.00278 µM	–	–	–	–	–	–	–	–	0.003 µM	–	> 10 µM	0%	–
NCC(=O)N(Cc1cccnc1)c1ccc(-c2nc3ccccc3s2)cc1	–	0.017 µM	0.064 µM and 0.625 µM	–	–	–	–	–	–	–	–	–	–	–	–	–
CO/N=C(\C)c1ccc(-n2ccnc2)c(NC(=O)c2ccc(-c3ccccn3)cc2)c1	–	> 1 µM	–	–	–	–	–	–	–	–	–	> 1 µM	> 100 µM	–	–	–
CCN(Cc1cccnc1)c1cncc(-c2nc3ccccc3s2)c1	–	0.171 µM	–	0.79 µM	1.56	3.67	66.3 µg/mL (≈ 191 µM)	3.52 µg/mL (≈ 10.2 µM)	414 µL/min/mg	0.953	4.2 min	0.353 µM	31.8 µM	> 10 µM	–	–
CO/N=C(\C)c1ccc(-n2ccnc2)c(NC(=O)c2sc(-c3ccccc3)nc2C)c1	–	0.0675 µM	–	–	2.3	3.5	> 100 µg/mL	–	18 µL/min/mg	–	97 min	0.204 µM	> 100 µM	–	–	–
CS(=O)(=O)N(Cc1cccnc1)c1ccc(-c2nc3ccccc3s2)cc1	–	0.0405 µM	–	–	–	–	–	–	–	–	–	0.091 µM	> 100 µM	–	–	–
O=C(C1CC1)N(Cc1cccnc1)c1cc(F)cc(-c2nc3ccccc3s2)c1	–	0.02 µM	–	–	3.04	4.49	66.9 µg/mL (≈ 166 µM)	6.65 µg/mL (≈ 16.5 µM)	1320 µL/min/mg	–	1.3 min	0.0625 µM	76.9 µM	–	–	–
CC(=O)N(Cc1c[nH]cn1)c1ccc(-c2ccc(F)cc2)cc1F	–	–	–	–	–	–	–	–	–	–	–	–	69.9 µM	–	–	–

Structure (SMILES)	IC50 (Trypanosoma cruzi [1])	IC50 (Trypanosoma cruzi [1]; [13])	IC90 (Trypanosoma cruzi [2])	IC50 (Cytochrome P450 3A4)	chromatographic logD [3]	chromatographic logD [4]	solubility kinetic [5]	solubility kinetic [6]	microsomal CLint (in vitro [7])	hepatic extraction ratio (in vitro [8])	half-life (in vitro [9])	IC90 (Trypanosoma cruzi [2]; [13])	IC50 [10]	IC50 [11]	PCR cure rate (Trypanosoma cruzi [12])	IC50 (L6)
CCN(Cc1cccnc1)c1cccc(-c2nc3ccccc3s2)c1	–	–	–	1 µM	4.1	4.9	> 100 µg/mL	< 1.6 µg/mL	159 µL/min/mg	0.86	11 min	–	41.9 µM	> 10 µM	–	–
CO/N=C(\C)c1ccc(-n2ccnc2)c(NC(=O)c2cc(-c3ccccc3)cs2)c1	–	–	–	–	–	–	–	–	–	–	–	–	> 100 µM	–	–	–
CCN(Cc1cccnc1)c1ccc(-c2nc3ccccc3s2)cc1	–	0.351 µM	–	–	–	–	–	–	–	–	–	0.632 µM	54.5 µM	–	–	–
CCOC(COc1ccc2cc(Br)ccc2c1)Cn1ccnc1.O=CO (stereo unspecified)	–	0.016 µM	–	< 0.25 µM	3.3	4.5	> 100 µg/mL	12.5 µg/mL	14 µL/min/mg	0.36	120 min	0.059 µM	44.2 µM	> 10 µM	–	–
CC(=O)N(Cc1cnc[nH]1)c1cc(F)cc(-c2nc3ccccc3s2)c1	0.534 µM	0.486 µM	> 1 µM	–	–	–	–	–	–	–	–	0.941 µM	> 100 µM	–	–	–
O=C(NCCc1c[nH]cn1)c1ccc(-c2ccccc2)cc1	–	0.305 µM	–	–	–	–	–	–	–	–	–	–	> 100 µM	–	–	–
CS(=O)(=O)c1ccc(-n2ccnc2)c(NC(=O)c2cnc(-c3ccccc3)s2)c1	–	0.0597 µM	–	–	–	–	–	–	–	–	–	> 0.1 µM	> 100 µM	–	–	–
CCN(c1ccccc1)S(=O)(=O)c1ccc(Cl)c(NC(=O)CN(C)C2CCN(C)CC2)c1	–	–	> 10 µM	–	–	–	–	–	–	–	–	–	51.5 µM	5.43 µM	–	54.1 µM
CCS(=O)(=O)N(Cc1cccnc1)c1cncc(-c2nc3ccccc3s2)c1	–	0.0135 µM	–	1.04 µM	1.89	3.19	> 82.1 µg/mL	13 µg/mL (≈ 31.8 µM)	559 µL/min/mg	0.965	3.1 min	0.355 µM	> 100 µM	–	–	–
CO/N=C(\C)c1ccc(-n2ccnc2)c(NC(=O)c2ccc(-c3cccs3)nc2)c1	–	0.0027 µM	–	1.4 µM	2.4	3.2	> 100 µg/mL	–	102 µL/min/mg	0.8	17 min	0.0095 µM	> 100 µM	–	–	–
CS(=O)(=O)N(Cc1cnc[nH]1)c1cc(F)cc(-c2nc3ccccc3s2)c1	0.065 µM and 0.074 µM	0.07 µM	0.569 µM and > 1 µM	–	–	–	–	–	–	–	–	0.615 µM	66.9 µM	–	–	63.9 µM
CS(=O)(=O)N(Cc1cccnc1)c1ccc(-c2ccc(F)cc2)cc1F	0.001 µM	0.002 µM	0.0146 µM and 0.006 µM	0.612 µM	1.89	3.18	> 74.9 µg/mL	8.62 µg/mL (≈ 23 µM)	218 µL/min/mg	0.916	7.9 min	–	–	–	–	–
CC(=O)N(Cc1cccnc1)c1ccc(-c2ccc(F)cc2)cc1F	–	0.0535 µM	–	–	–	–	–	–	–	–	–	0.183 µM	–	–	–	–
CC(C)Cc1ccc(-n2ccnc2)c(NC(=O)c2cnc(-c3ccccc3)s2)c1	0.00022 µM and 0.0002 µM and 0.00019 µM	< 0.00014 µM	–	–	2.8	3.9	> 100 µg/mL	< 1.6 µg/mL	157 µL/min/mg	–	11 min	–	–	–	–	–
CCN(CC)S(=O)(=O)c1ccc(-n2ccnc2)c(NC(=O)c2cnc(-c3ccccc3)nc2)c1	0.0065 µM and 0.0008 µM	–	0.0235 µM and 0.00803 µM	20 µM	2.7	3.2	50 µg/mL (≈ 105 µM)	1.6 µg/mL (≈ 3.36 µM)	166 µL/min/mg	0.9	10 min	–	> 100 µM	> 10 µM	–	–
O=C(Nc1ccccc1-n1ccnc1)c1cnc(-c2ccccc2)s1	0.0032 µM and 0.0038 µM	0.0049 µM	–	–	–	–	–	–	–	–	–	0.01 µM	–	–	–	–
CCN(c1ccccc1)S(=O)(=O)c1ccc(Cl)c(NC(=O)CNC2CCCN(C)C2)c1.O=CO (stereo unspecified)	–	> 1 µM	–	16.3 µM	-0.12	1.56	101 µg/mL	94.4 µg/mL	89 µL/min/mg	0.815	19.5 min	> 1 µM	45.7 µM	0.91 µM	–	–
Cc1ccc(-n2ccnc2)c(NC(=O)c2cnc(-c3ccccc3)s2)c1	–	0.00198 µM	–	–	1.8	3	> 100 µg/mL	–	109 µL/min/mg	–	16 min	0.015 µM	86.6 µM	–	–	–
